The target of assay [1] is T1, Bcl-XL/Bak-BH3 (Homo sapiens, UniProt Q07817). As to conditions: proof-of-concept study; cited from earlier work.
Assay [2] has as its target T1, Bcl-XL/Bak-BH3. The assay is classed as binding.
[3] abbreviates: GST-Bcl-XL, fluorescein-labeled Bak-BH3 peptide.

T1 sequence (Q07817 whole entry): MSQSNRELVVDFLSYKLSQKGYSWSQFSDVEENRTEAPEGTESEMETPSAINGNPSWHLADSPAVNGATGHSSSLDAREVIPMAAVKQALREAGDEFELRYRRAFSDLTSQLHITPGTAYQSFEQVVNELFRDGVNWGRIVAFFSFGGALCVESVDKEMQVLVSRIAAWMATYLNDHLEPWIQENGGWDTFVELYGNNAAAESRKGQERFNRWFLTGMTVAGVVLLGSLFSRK

In general, IC50 refers to the concentration needed to halve the response being measured. A lower IC50 goes with greater potency. As usually defined, the Ki is a dissociation constant, usually derived from enzyme kinetics or from competition with a known ligand. Higher therefore signals weaker binding. For the compound `CC1(C)CCN(c2ccc(C(=O)NS(=O)(=O)c3ccc(NCCSc4ccccc4)c([N+](=O)[O-])c3)cc2)CC1` [SZ4TA2], in assay [1], the IC50 inhibitory constants entry is recorded as “nM range”. In assay [2] (setting [3]), this compound yielded an IC50 of 0.106 ± 0.012 µM and an inhibition constant Ki of 0.0375 ± 0.005 µM. In assay [2] (acylsulfonamide at 50 μM concentration, Bcl-XL/Bak-BH3 PPI disruption), the “Percentage Inhibition” value was determined as 100%. `CC1(C)CCN(c2ccc(C(=O)NS(=O)(=O)c3ccc4ccc(S(=O)(=O)NCCSc5ccccc5)cc4c3)cc2)CC1` [SZ7TA2] displayed a Ki in assay [2] (setting [3]) of 11.5 ± 1.4 µM. On the same count and under the same terms, as for `[N-]=[N+]=NS(=O)(=O)c1ccc(CN(CCSc2ccccc2)Cc2ccc(S(=O)(=O)NC(=O)c3ccccc3)cc2)cc1` [SZ9TA1], the figure is 11.6 ± 1.6 µM; as for `COc1cc(OC)cc(C(=O)NS(=O)(=O)c2ccc(CN(CCSc3ccccc3)Cc3ccc(S(=O)(=O)N=[N+]=[N-])cc3)cc2)c1` [SZ9TA5], 14.6 ± 1 µM.

These data come from paper PMC3151735 (ACS chemical biology, 2011).
